Inconclusive results are not listed. The source made the active and inactive calls. No rule for the calls is given here.
What follows are compounds tested on C. albicans CaCi-8 + fluconazole, Alamar Blue growth, 48 h (assay: resistant C. albicans growth inhibition with fluconazole, dose response, CaCi-8 strain, Alamar Blue fluorescence (AID 2423)).
With `Cn1cccc1-c1cc(C(=O)N2CCc3c([nH]c4ccccc34)C2c2ccccn2)[nH]n1` (stereo unspecified) the EC50 was 741 nM.
`Clc1ccc2c(c1)C(c1cccs1)=NNC(c1cccnc1)=N2` gave an EC50 of under 120 nM.
Compound `O=C(c1ccc2c(c1)OCO2)N1CCC2(CC1)Oc1ccc(F)cc1C(=O)C21CC(c2cccnc2)=NO1` (stereo unspecified) has an EC50 of 402 nM.
`Cc1cc(C)n(-c2nc(SCCN(C)C)c3c4c(sc3n2)CCCC4)n1` showed an EC50 of 6430 nM.
With `Cc1nn(-c2ccccc2)c(Cl)c1/C=C/C(=O)c1ccc(O)cc1` the EC50 was 1640 nM.
Compound `Cc1cc(O)ccc1NC(=S)NC(=O)c1cncc(Br)c1` has an EC50 of 727 nM.
`CC(=O)Nc1ccc(NC(=O)CSc2ccc3nnc(CCNS(=O)(=O)c4ccc(C)cc4)n3n2)cc1` was tested, and the EC50 was > 16000 nM (inactive).
`O=C(Nc1nnc(-c2ccccn2)o1)c1ccc(Br)cc1` was tested, and the EC50 was > 15000 nM (inactive).
In the case of `COCCNC(=O)NC12CC3CC(CC(C3)C1)C2`, the EC50 is reported as > 16000 nM (inactive).
For `O=C(N/N=C/c1cc(Br)c(O)c(Br)c1)c1cc2c(ccc3ccccc32)o1`, the EC50 was 915 nM.
`Oc1cccc(Nc2ncnc3c2oc2ccccc23)c1` was tested, and the EC50 was 6650 nM.
For `CCOc1ccc(C(=O)Nc2ccc(Cc3ccncc3)cc2)cc1Br`, the EC50 was 3640 nM.
`C/C(=N\NC(=O)c1cc2ccccc2cc1O)c1ccccn1` gave an EC50 of 1450 nM.
`O=C(CSc1nnc(-c2ccc(Br)cc2)o1)Nc1cccc2ccccc12` showed an EC50 of 15600 nM.
`CCN(CC)c1ccc(N=Cc2ccc(N(CC)CC)cc2O)cc1` showed an EC50 of 11100 nM.
In the case of `COc1ccc(C(=O)NN/C(C)=C/C(=O)C(F)(F)C(F)(F)C(F)(F)F)cc1`, the EC50 is reported as 5050 nM.
With `O=C1C=C(NCc2ccccc2)c2ccccc2C1=O` the EC50 was 1860 nM.
With `CCOC(=O)c1cnc(-n2cc(C)cn2)nc1Nc1ccccc1OCC` the EC50 was 12500 nM.
In the case of `CCCCC(=O)NC(c1ccc(N(C)C)cc1)c1ccc2cccnc2c1O` (stereo unspecified), the EC50 is reported as 707 nM.
For `COc1ccc(C(c2c(O)ccc3ccccc23)N2CCOCC2)c(OC)c1` (stereo unspecified), the EC50 was 2850 nM.
`Oc1ccc(/C=N/N(c2ccccc2)c2ccccc2)c(O)c1O` showed an EC50 of 10800 nM.
Work on `C#CC[N+](C)(C)CCCCCCCCCCCC` yielded an EC50 of 8930 nM.
For `Cc1ccc(C)c(OC(=O)c2cncc(Br)c2)c1`, the EC50 was > 16000 nM (inactive).
`Oc1ccccc1N=Nc1ccccc1O` was tested, and the EC50 was 973 nM.
`CCOc1ccccc1C(=O)N/N=C/c1ccoc1` was tested, and the EC50 was 2180 nM.
Compound `COc1ccc(OC)c(NC(=O)c2c3c(nc4ccccc24)CCC3)c1` has an EC50 of 6600 nM.
`O=C(NNC(=O)c1cc2ccccc2cc1O)NC1CCCCC1` gave an EC50 of 13600 nM.
For `O=C(Nc1nnc(C2COc3ccccc3O2)o1)c1ccc(F)cc1` (stereo unspecified), the EC50 was 910 nM.
`O=C(Oc1c(Cl)cc(Cl)c2cccnc12)c1cccc([N+](=O)[O-])c1` gave an EC50 of 444 nM.
`CN(C)S(=O)(=O)Oc1cccc(C(=O)Nc2cccc(Cl)c2)c1` was tested, and the EC50 was 1350 nM.
`CCC(C)(C)c1ccc(OCCCC[n+]2ccc(C)cc2)c(C(C)(C)CC)c1` was tested, and the EC50 was > 16000 nM (inactive).
In the case of `CC(c1ccccc1)N1CCn2c(nc3cc(NS(C)(=O)=O)ccc32)C1` (stereo unspecified), the EC50 is reported as > 16000 nM (inactive).
`O=C(/C=C/c1ccco1)Oc1cc(Br)cc(/C=N/NC(=O)c2ccccc2O)c1` was tested, and the EC50 was 3320 nM.
`Oc1ccc(CN2CCCCC2)c2cccnc12` showed an EC50 of 16100 nM.
In the case of `COc1ccccc1NC(=O)CN1CCN(c2ccccc2OC)CC1`, the EC50 is reported as > 16000 nM (inactive).
For `Cc1cccc(NC(=S)N/N=C(\c2ccccc2)C(C)C)c1`, the EC50 was 3120 nM.
For `CCOc1cc(/C=N/NC(=O)c2cccnc2)ccc1OCC(N)=O`, the EC50 was > 15000 nM (inactive).
`CC[n+]1c(/C=C2\Sc3ccccc3N2C)ccc2cccc(C)c21` showed an EC50 of under 120 nM.
In the case of `Cc1ccccc1C(=O)Nc1nnc(-c2ccc(F)cc2)o1`, the EC50 is reported as 624 nM.
`Cc1c(Cl)c([N+](=O)[O-])nn1Cc1ccc(C(=O)N/N=C\c2cc(Cl)ccc2O)o1` gave an EC50 of 1030 nM.
`O=[N+]([O-])c1ccc(O)c(/C=N/NC(=S)Nc2ccc(Cl)cc2Cl)c1` showed an EC50 of 1870 nM.
In the case of `c1ccc(CC2CCN(C3=Nc4cccc5cccc3c45)CC2)cc1`, the EC50 is reported as 4400 nM.
With `Cc1c(Cl)ccc(S(=O)(=O)Nc2cccnc2)c1Cl` the EC50 was > 15000 nM (inactive).
`O=C(NC(c1ccc(Cl)cc1)c1cc(Cl)c2cccnc2c1O)c1cccnc1` (stereo unspecified) gave an EC50 of 329 nM.
`Cc1cccc(Cc2cnc(N3C(=N)SC(C)C3=O)s2)c1` (stereo unspecified) was tested, and the EC50 was > 16000 nM (inactive).
`CCN(CC)c1ccc2cc(S(=O)(=O)c3ccc(C)cc3)c(=O)oc2c1` showed an EC50 of 657 nM.
`O=C(Nc1nc(-c2ccccn2)cs1)c1cc2ccccc2o1` was tested, and the EC50 was 903 nM.
`O=C(c1cc(COc2cccc(C(F)(F)F)c2)on1)N1CCC(c2ccncc2)CC1` showed an EC50 of 2540 nM.
`Cc1ccc(C(=O)CC(=O)COc2ccc(Cl)cc2)cc1` was tested, and the EC50 was 2980 nM.
`CC(C)(C)c1ccc(C(=O)NC(=S)NNC(=O)COc2ccccc2)cc1` was tested, and the EC50 was 2110 nM.
In the case of `CCOc1ccccc1C1C2=C(COC2=O)Nc2cc3c(cc21)OCO3` (stereo unspecified), the EC50 is reported as > 16000 nM (inactive).
`O=C(Nc1sc2c(c1C(=O)c1ccc(Cl)cc1)CCCC2)c1cccnc1` showed an EC50 of 615 nM.
`O=c1ccc(N=Nc2ccccc2)ccc1O` was tested, and the EC50 was 879 nM.
With `COc1ccc(NC(=O)Nc2nc3c(s2)CCCC3)cc1` the EC50 was 2740 nM.
Work on `COc1ccc(-n2nc(C(=O)NCC(=O)NCCC3=CCCCC3)c3ccccc3c2=O)c(OC)c1` yielded an EC50 of 232 nM.
`Cc1cc(NC(=O)c2ccc([N+](=O)[O-])o2)ccc1NC(=O)c1ccco1` showed an EC50 of 338 nM.
